Source: patent publication US20170354592A1 (ASCENDIA PHARMACEUTICALS, LLC, priority 2016, published 2017)

Columns and labels:
β-adrenoceptor = details: cited from earlier work; for potency as a β-adrenoceptor antagonist versus Carvedilol: relative to carvedilol, Hoffman (2001), Tenero et al (2000)
[1] = Single IV injection of carvedilol liposomes and free-carvedilol solution, plasma PK; details: rats, single iv 2.5 mg/kg
Procedure: (§1) 15 cannulated and non-cannulated, 9 and 6 rats respectively, Sprague-Dawley® male rats were divided into 3 groups. […] Treatment was administered intravenously. During the experiment, rats were inspected twice daily for vitality and as needed after dosing and intermittently and vitals, including blood pressure, heart rate, and temperature, were recorded from the non-cannulated animals. Main vital signs were monitored prior to and at multiple time points after dose administration. Blood pressure and heart rate were measured using a non-invasive tail cuff system after a brief acclimation period. Blood samples (approximately 300-325 μL each) were collected from cannulated rats at each time point into tubes containing K2EDTA.
(§2) Following centrifugation at 4° C., the plasma was collected and stored at −80° C. The blood sampling time points were as follows: prior to (PRE) and approximately 0.25, 0.5, 1, 2, 3, 8, 10 and 24 hours after dose administration. Samples were collected via Jugular Vein Cannulas.

[2] = Vital signs and adverse reactions after IV dose (non-invasive tail cuff); details: rats iv 2.5 mg/kg
Procedure: as §1, §2

[3] = cited from earlier work

COc1cc(O)ccc1OCCNCC(O)COc1cccc2[nH]c3ccccc3c12 (stereo not shown) [4-hydroxyphenyl-carvedilol]
potency in β-blockade versus the parent compound (β-adrenoceptor; more potent than carvedilol): about 13 fold | potency as a β-adrenoceptor antagonist versus Carvedilol (β-adrenoceptor): about 13 times

COc1ccc(O)cc1OCCNCC(O)COc1cccc2[nH]c3ccccc3c12 (stereo not shown) [5-hydroxyphenyl-carvedilol]
potency as a β-adrenoceptor antagonist versus Carvedilol (β-adrenoceptor): one-half

Oc1ccccc1OCCNCC(O)COc1cccc2[nH]c3ccccc3c12 (stereo not shown) [desmethylcarvedilol]
potency as a β-adrenoceptor antagonist versus Carvedilol (β-adrenoceptor): approximately 2.5 times

(±)-[3-(9H-carbazol-4-yloxy)-2-hydroxypropyl][2-(2-ethoxyphenoxy)ethyl] amine [Carvedilol]
time after dose at which carvedilol was cleared from plasma ([1]; FIG. 3): 3 h | AUC(0-T) ([1]; mean): 284 ng·h/mL | AUC(INF) ([1]; mean): 291 ng·h/mL | CL ([1]; mean): 144.0 mL/min/kg | Cmax ([1]; mean): 354 ng/mL | T-HALF ([1]; mean): 0.52 h | Tmax ([1]; mean): 15 min | Vss ([1]; mean): 6.4 L/kg | Diastolic ([2]; 1 Hour after dose): 40 | HR ([2]; 1 Hour after dose): 363 Beats/min | MAP ([2]; 1 Hour after dose): 69 | Temp ([2]; 1 Hour after dose): 99 ° F. | Diastolic ([2]; 15 min after dose): 48 | HR ([2]; 15 min after dose): 354 Beats/min | MAP ([2]; 15 min after dose): 73 | Temp ([2]; 15 min after dose): 98 ° F. | Diastolic ([2]; 30 min after dose): 33 | HR ([2]; 30 min after dose): 360 Beats/min | MAP ([2]; 30 min after dose): 60 | Temp ([2]; 30 min after dose): 99 ° F. | pKa [3]: 7.8
